Assay results published in US12138398B2, “Methods and devices for providing a stimulus to a subject to induce gamma oscillations” (Massachusetts Institute of Technology, priority 2015, dated 2024).
Where “and” joins values, the source holds several entries; their conditions need not be identical. Equal entries are not always repeated. Where two headings read alike, the source gives them in different places.

How the values were obtained:
AD patients = conditions: cited from earlier work
[1] = system: Aβ1-40 and Aβ1-42 levels in 5×FAD visual cortex; assay: Aβ ELISA of visual cortex after one hour 40-Hz light flicker with picrotoxin pretreatment; type: in vivo, mouse
Excerpt: FIGS. 47A and 47B are bar graphs depicting changes in baseline levels of Aβ1-40 and Aβ1-42, respectively, in 5×FAD visual cortex in dark, light, 40-Hz flicker, 20-Hz flicker, 80-Hz flicker, 40-Hz flicker with picrotoxin (PTX) and Random flicker conditions in accordance with some embodiments (n=12 mice per group for dark; n=6 mice per group for light, 40-Hz flicker, 20-Hz flicker, 80-Hz flicker, and PTX; n=4 mice per group for Random flicker; “n.s.” indicates not significant, one asterisk indicates p<0.05, and two asterisks indicate p<0.01 by one-way ANOVA). FIGS. 47 and 47B show mean and SEM. Circles superimposed on bars in the bar graphs indicate individual data points in each group. Following one hour after light exposure, it was observed that Aβ1-40 levels in visual cortex were reduced by 57.96% and Aβ1-42 levels by 57.97% compared to the dark condition (as measured by Aβ ELISA, see, e.g., FIGS. 47A and 47B, p<0.05 by one-way ANOVA, n=6 mice per group). Compared to light controls, amyloid levels were reduced by 62.47% (Aβ1-40) and 68.55% (Aβ1-42) following one hour of 40-Hz flicker (as measured by Aβ ELISA, see, e.g., FIG. 4′7, p<0.05 by one-way ANOVA, n=6 mice per group). […]
Fifteen minutes prior to the experiment 5×FAD mice were treated with saline (Control) or picrotoxin (0.18 mg/kg). For molecular and biochemical analyses mice were then placed in a dark chamber illuminated by an LED bulb and exposed to one of five stimulation conditions: dark, light, 20-Hz flicker, 40-Hz flicker, or 80-Hz flicker (12.5 ms light on, 12.5 ms light off) for one hour (see, e.g., FIG. 43A). For electrophysiological recordings each animal received dark, light, 40-Hz flicker, or random (light pulses were delivered with a random interval determined by a Poisson process with an average interval of 40 Hz) stimulation conditions interleaved in 10 s blocks during recordings. […]

[2] = system: organotypic hippocampal slices prepared from transgenic (Tg) mice overexpressing APP; conditions: cited from earlier work
[3] = 5×FAD visual cortex (VC), 40 Hz flicker one hour + PTX (0.18 mg/kg pretreatment), ELISA dilution 1:2, individual mice

CC(C)[C@H](O)C(=O)N[C@@H](C)C(=O)N[C@@H]1C(=O)N(C)CCc2ccccc21 [semagacestat]
clinical outcome on cognition (AD patients; AD subjects): worsening of cognitive deficits

picrotoxin [PTX]
effects of 40-Hz flicker on Aβ levels after picrotoxin pretreatment ([1]; 5×FAD mice, picrotoxin 0.18 mg/kg): completely abrogated | Average Aβ1-40 Concentration [1, 3]: 367.2 pg/ml and 431.4 pg/ml and 445.2 pg/ml (2×) and 392.4 pg/ml and 386.7 pg/ml | Aβ1-42 concentration [1, 3]: 396.6 pg/ml and 540.5 pg/ml and 532.7 pg/ml and 705.0 pg/ml and 104.5 pg/ml (2×) | neuronal activity ([2]; organotypic hippocampal slices, APP Tg mice): increased neuronal activity

CCN(C)C(=O)Oc1cccc([C@H](C)N(C)C)c1 [rivastigmine]
clinical outcome on cognition (AD patients; AD subjects): only mild cognitive benefits

NC1=N[C@H](O)[C@H]2[C@H]3O[C@]4(O)O[C@@H]([C@@H](O)[C@@]2(N1)[C@@H]4O)[C@]3(O)CO [tetrodotoxin]
Aβ levels [2]: decreased | neuronal activity [2]: decreased

COc1cc2c(cc1OC)C(=O)C(CC1CCN(Cc3ccccc3)CC1)C2 (stereo not drawn) [donepezil]
clinical outcome on cognition (AD patients; human, in vivo): only mild cognitive benefits
